Article PMC5218480 (PLoS ONE, 2017)

Tested on: MV-4-11 cells
Assay: Gene expression microarray analysis (Affymetrix PrimeView) and GSEA
Assay type: cell-based, human
Design: RFU PODN (11730768_x_at) / Fold change /veh PODN (11730768_x_at) / RFU LINC00158 (11744669_a_at) / Fold change /veh LINC00158 (11744669_a_at) / RFU DUSP10 (11751237_a_at) / Fold change /veh DUSP10 (11751237_a_at) / RFU ID3 (11757404_x_at) / Fold change /veh ID3 (11757404_x_at) / RFU PLEKHG5 (11737974_s_at) / Fold change /veh PLEKHG5 (11737974_s_at) / RFU LRRC4B (11730491_at) / Fold change /veh LRRC4B (11730491_at) / RFU GIMAP4 (11747438_a_at) / Fold change /veh GIMAP4 (11747438_a_at) / RFU KRT8 (11758183_x_at) / Fold change /veh KRT8 (11758183_x_at) / RFU CNN1 (11734310_a_at) / Fold change /veh CNN1 (11734310_a_at) / RFU VPS37D (11726825_at) / Fold change /veh VPS37D (11726825_at) / RFU C10orf10 (11716522_x_at) / Fold change /veh C10orf10 (11716522_x_at) / RFU KIR2DL2 /// KIR2DL4 /// KIR2DL5A /// KIR2DL5B /// KIR2DS1 /// KIR2DS2 /// KIR2DS3 /// KIR2DS4 /// KIR3DL3 /// KIR3DL3 /// KIR3DS1 (11738374_at) / Fold change /veh KIR2DL2 /// KIR2DL4 /// KIR2DL5A /// KIR2DL5B /// KIR2DS1 /// KIR2DS2 /// KIR2DS3 /// KIR2DS4 /// KIR3DL3 /// KIR3DL3 /// KIR3DS1 (11738374_at) / RFU C1QL1 (11718748_at) / Fold change /veh C1QL1 (11718748_at) / RFU TMPRSS4 (11747572_a_at) / Fold change /veh TMPRSS4 (11747572_a_at) / RFU HAMP (11756126_x_at) / Fold change /veh HAMP (11756126_x_at) / RFU RNFT2 (11725882_a_at) / Fold change /veh RNFT2 (11725882_a_at) / RFU NR4A2 (11747474_a_at) / Fold change /veh NR4A2 (11747474_a_at) / RFU ABCC12 (11746883_a_at) / Fold change /veh ABCC12 (11746883_a_at) / RFU TMEM136 (11760407_x_at) / Fold change /veh TMEM136 (11760407_x_at) / RFU CLDN22 /// WWC2 (11732394_at) / Fold change /veh CLDN22 /// WWC2 (11732394_at) / RFU HLA-DPB1 (11760878_x_at) / Fold change /veh HLA-DPB1 (11760878_x_at) / RFU SPINT1 (11716480_a_at) / Fold change /veh SPINT1 (11716480_a_at) / RFU GAP43 (11754022_s_at) / Fold change /veh GAP43 (11754022_s_at) / RFU A4GNT (11735810_at) / Fold change /veh A4GNT (11735810_at) / RFU PRB3 (11715151_x_at) / Fold change /veh PRB3 (11715151_x_at) / RFU TUBB4B (11761932_at) / Fold change /veh TUBB4B (11761932_at) / RFU CAPN14 (11732068_a_at) / Fold change /veh CAPN14 (11732068_a_at) / RFU TMCC2 (11721928_a_at) / Fold change /veh TMCC2 (11721928_a_at) / RFU IRGQ (11745062_a_at) / Fold change /veh IRGQ (11745062_a_at) / RFU FAM174B (11720279_a_at) / Fold change /veh FAM174B (11720279_a_at) / RFU TMPRSS4 (11748680_a_at) / Fold change /veh TMPRSS4 (11748680_a_at) / RFU FAM212B (11763350_a_at) / Fold change /veh FAM212B (11763350_a_at) / RFU PLEKHG5 (11743358_a_at) / Fold change /veh PLEKHG5 (11743358_a_at) / RFU ZSCAN30 (11745921_a_at) / Fold change /veh ZSCAN30 (11745921_a_at) / RFU CMKLR1 (11741424_a_at) / Fold change /veh CMKLR1 (11741424_a_at) / RFU LOC101060620 /// MAPK8IP1 (11723275_at) / Fold change /veh LOC101060620 /// MAPK8IP1 (11723275_at) / RFU SPTSSB (11747773_x_at) / Fold change /veh SPTSSB (11747773_x_at) / RFU PRSS12 (11739890_at) / Fold change /veh PRSS12 (11739890_at) / RFU BIN1 (11741810_x_at) / Fold change /veh BIN1 (11741810_x_at) / RFU WNT11 (11732464_a_at) / Fold change /veh WNT11 (11732464_a_at) / RFU C10orf10 (11716521_a_at) / Fold change /veh C10orf10 (11716521_a_at) / RFU C5orf56 (11738089_at) / Fold change /veh C5orf56 (11738089_at) / RFU CYB561 (11721691_x_at) / Fold change /veh CYB561 (11721691_x_at) / RFU ANKRD19P (11752326_a_at) / Fold change /veh ANKRD19P (11752326_a_at) / RFU OR2T12 /// OR2T33 /// OR2T8 (11738714_s_at) / Fold change /veh OR2T12 /// OR2T33 /// OR2T8 (11738714_s_at) / RFU VCAN (11748164_a_at) / Fold change /veh VCAN (11748164_a_at) / RFU JSRP1 (11732532_at) / Fold change /veh JSRP1 (11732532_at) / RFU KRTAP10-11 (11738290_x_at) / Fold change /veh KRTAP10-11 (11738290_x_at) / RFU MYO3A (11730013_a_at) / Fold change /veh MYO3A (11730013_a_at) / RFU EBF3 (11725865_a_at) / Fold change /veh EBF3 (11725865_a_at) / RFU CAMK2N1 (11719241_x_at) / Fold change /veh CAMK2N1 (11719241_x_at) / RFU C5orf56 (11738088_a_at) / Fold change /veh C5orf56 (11738088_a_at) / RFU OLFML3 (11715873_a_at) / Fold change /veh OLFML3 (11715873_a_at) / RFU LOC100653217 /// NTM (11731650_a_at) / Fold change /veh LOC100653217 /// NTM (11731650_a_at) / RFU MAPK11 (11762145_a_at) / Fold change /veh MAPK11 (11762145_a_at) / RFU FIZ1 (11724087_x_at) / Fold change /veh FIZ1 (11724087_x_at) / RFU OASL (11726364_x_at) / Fold change /veh OASL (11726364_x_at) / RFU SOX15 (11748057_x_at) / Fold change /veh SOX15 (11748057_x_at) / RFU CD79A (11719716_a_at) / Fold change /veh CD79A (11719716_a_at) / RFU HIST1H1D (11736915_at) / Fold change /veh HIST1H1D (11736915_at) / RFU CASKIN2 (11723855_a_at) / Fold change /veh CASKIN2 (11723855_a_at) / RFU LOC730098 (11760151_x_at) / Fold change /veh LOC730098 (11760151_x_at) / RFU OR4N2 (11742367_at) / Fold change /veh OR4N2 (11742367_at) / RFU PRRT2 (11749266_a_at) / Fold change /veh PRRT2 (11749266_a_at) / RFU SNX32 (11753110_a_at) / Fold change /veh SNX32 (11753110_a_at) / RFU CDHR5 (11726645_a_at) / Fold change /veh CDHR5 (11726645_a_at) / RFU RCAN1 (11760418_a_at) / Fold change /veh RCAN1 (11760418_a_at) / RFU FAM167A (11723789_a_at) / Fold change /veh FAM167A (11723789_a_at) / RFU FAM26E (11764081_at) / Fold change /veh FAM26E (11764081_at) / RFU ISYNA1 (11749810_s_at) / Fold change /veh ISYNA1 (11749810_s_at) / RFU ACY1 (11761880_at) / Fold change /veh ACY1 (11761880_at) / RFU 11764098_at / Fold change /veh 11764098_at / RFU SAMD14 (11745864_x_at) / Fold change /veh SAMD14 (11745864_x_at) / RFU NPB (11741838_a_at) / Fold change /veh NPB (11741838_a_at) / RFU TMPRSS6 (11731388_a_at) / Fold change /veh TMPRSS6 (11731388_a_at) / RFU KRTAP10-2 (11738614_at) / Fold change /veh KRTAP10-2 (11738614_at) / RFU ARHGAP8 /// PRR5-ARHGAP8 (11727945_x_at) / Fold change /veh ARHGAP8 /// PRR5-ARHGAP8 (11727945_x_at) / RFU KRTAP5-7 /// NADSYN1 (11734609_at) / Fold change /veh KRTAP5-7 /// NADSYN1 (11734609_at) / RFU RASL12 (11751679_a_at) / Fold change /veh RASL12 (11751679_a_at) / RFU CDKN2B (11736163_a_at) / Fold change /veh CDKN2B (11736163_a_at) / RFU PRF1 (11729649_at) / Fold change /veh PRF1 (11729649_at) / RFU, ZNF638 /// ZNF638-IT1 / Fold change vs veh, ZNF638 /// ZNF638-IT1 / RFU, PANK3 / Fold change vs veh, PANK3 / RFU, SH3YL1 / Fold change vs veh, SH3YL1 / RFU, ZEB2 / Fold change vs veh, ZEB2 / RFU, NRIP1 / Fold change vs veh, NRIP1 / RFU, PTTG1IP / Fold change vs veh, PTTG1IP / RFU, CAPN2 / Fold change vs veh, CAPN2 / RFU, MED14 / Fold change vs veh, MED14 / RFU, SNORA58 / Fold change vs veh, SNORA58 / RFU, C1orf63 / Fold change vs veh, C1orf63 / RFU, LRRFIP1 / Fold change vs veh, LRRFIP1 / RFU, NDUFAF7 / Fold change vs veh, NDUFAF7 / RFU, SLC12A2 / Fold change vs veh, SLC12A2 / RFU, IBTK / Fold change vs veh, IBTK / RFU, ESF1 / Fold change vs veh, ESF1 / Fold change vs veh, TMEM50B / RFU, TAOK1 / Fold change vs veh, TAOK1 / RFU, ACBD3 / Fold change vs veh, ACBD3 / RFU, TMA16 / Fold change vs veh, TMA16 / RFU, RWDD3 / Fold change vs veh, RWDD3 / RFU, BCAT1 / Fold change vs veh, BCAT1 / RFU, EDEM3 / Fold change vs veh, EDEM3 / RFU, TMEM33 / Fold change vs veh, TMEM33 / RFU, WDR75 / Fold change vs veh, WDR75 / RFU, AHCTF1 / Fold change vs veh, AHCTF1 / RFU, TFRC / Fold change vs veh, TFRC / RFU, ZDHHC17 / Fold change vs veh, ZDHHC17 / RFU, NOM1 / Fold change vs veh, NOM1 / RFU, ARL8B / Fold change vs veh, ARL8B / RFU, ZBTB11 / Fold change vs veh, ZBTB11 / RFU, TAMM41 / Fold change vs veh, TAMM41 / RFU, KIAA1704 /// LOC100996395 / Fold change vs veh, KIAA1704 /// LOC100996395 / RFU, ING1 / Fold change vs veh, ING1 / RFU, TRMT61B / Fold change vs veh, TRMT61B / RFU, FUBP3 / Fold change vs veh, FUBP3 / RFU, TP53 / Fold change vs veh, TP53 / RFU, TNKS2 / Fold change vs veh, TNKS2 / RFU, ZFP14 / Fold change vs veh, ZFP14 / RFU, ACTR2 / Fold change vs veh, ACTR2 / RFU, PPP3R1 / Fold change vs veh, PPP3R1 / RFU, PIK3R1 / Fold change vs veh, PIK3R1 / RFU, HNRNPA1 / Fold change vs veh, HNRNPA1 / RFU, RNF170 / Fold change vs veh, RNF170 / RFU, ZNF28 / Fold change vs veh, ZNF28 / RFU, RNGTT / Fold change vs veh, RNGTT / RFU, OGT / Fold change vs veh, OGT / RFU, BRD1 / Fold change vs veh, BRD1 / RFU, MARS / Fold change vs veh, MARS / RFU, ZNF655 / Fold change vs veh, ZNF655 / RFU, FAHD1 / Fold change vs veh, FAHD1 / RFU, BDP1 / Fold change vs veh, BDP1 / RFU, LRRCC1 / Fold change vs veh, LRRCC1 / RFU, ARID1A / Fold change vs veh, ARID1A / RFU, ZNF146 / Fold change vs veh, ZNF146 / RFU, ZNF330 / Fold change vs veh, ZNF330 / RFU, GPN3 / Fold change vs veh, GPN3 / RFU, C9orf123 / Fold change vs veh, C9orf123 / RFU, N4BP2L2 / Fold change vs veh, N4BP2L2 / RFU, ARFIP1 / Fold change vs veh, ARFIP1 / RFU, FAM179B / Fold change vs veh, FAM179B / RFU, BCL10 / Fold change vs veh, BCL10 / RFU, UHRF1BP1L / Fold change vs veh, UHRF1BP1L / RFU, BET1 / Fold change vs veh, BET1 / RFU, CNOT2 / Fold change vs veh, CNOT2 / RFU, ZNF268 / Fold change vs veh, ZNF268 / Fold change vs veh, ZNF507 / RFU, DGCR2 / Fold change vs veh, DGCR2 / RFU, WDSUB1 / Fold change vs veh, WDSUB1 / Fold change vs veh, HSP90B1 /// MIR3652 / RFU, ADSS / Fold change vs veh, ADSS / RFU, GK / Fold change vs veh, GK / RFU, ZNF148 / Fold change vs veh, ZNF148 / RFU, TAF9 / Fold change vs veh, TAF9 / RFU, SLC1A5 / Fold change vs veh, SLC1A5 / RFU, SLMO2 / Fold change vs veh, SLMO2 / RFU, ABCC4 / Fold change vs veh, ABCC4 / RFU, LOC101060439 /// RAP1B / Fold change vs veh, LOC101060439 /// RAP1B / RFU, RFX7 / Fold change vs veh, RFX7 / RFU, GTPBP10 / Fold change vs veh, GTPBP10 / RFU, CNEP1R1 / Fold change vs veh, CNEP1R1 / RFU, BIVM-ERCC5 /// ERCC5 / Fold change vs veh, BIVM-ERCC5 /// ERCC5 / RFU, ILF3 / Fold change vs veh, ILF3 / RFU 11762660_at / Fold change /veh 11762660_at / RFU VCAN (11757783_s_at) / Fold change /veh VCAN (11757783_s_at) / RFU DDX43 (11728927_at) / Fold change /veh DDX43 (11728927_at) / RFU KRT8 (11758188_x_at) / Fold change /veh KRT8 (11758188_x_at) / RFU NKD1 (11759106_at) / Fold change /veh NKD1 (11759106_at) / RFU SRD5A1 (11742802_a_at) / Fold change /veh SRD5A1 (11742802_a_at) / RFU TPSAB1 /// TPSB2 (11721975_s_at) / Fold change /veh TPSAB1 /// TPSB2 (11721975_s_at) / RFU GSTM3 (11746129_a_at) / Fold change /veh GSTM3 (11746129_a_at) / RFU IL23R (11737362_x_at) / Fold change /veh IL23R (11737362_x_at) / RFU TMEM51 (11727254_a_at) / Fold change /veh TMEM51 (11727254_a_at) / RFU PIWIL2 (11732686_x_at) / Fold change /veh PIWIL2 (11732686_x_at) / RFU ORM1 (11744905_x_at) / Fold change /veh ORM1 (11744905_x_at) / RFU CCDC152 (11743942_at) / Fold change /veh CCDC152 (11743942_at) / RFU ECM1 (11717891_a_at) / Fold change /veh ECM1 (11717891_a_at) / RFU IL23R (11748794_a_at) / Fold change /veh IL23R (11748794_a_at) / RFU TNFAIP8L3 (11732012_x_at) / Fold change /veh TNFAIP8L3 (11732012_x_at) / RFU MBOAT4 (11741988_at) / Fold change /veh MBOAT4 (11741988_at) / RFU 11764193_at / Fold change /veh 11764193_at / RFU TMEM53 (11763286_at) / Fold change /veh TMEM53 (11763286_at) / RFU MAGEB2 (11727129_at) / Fold change /veh MAGEB2 (11727129_at) / RFU TMEM200A (11744735_a_at) / Fold change /veh TMEM200A (11744735_a_at) / RFU CCDC152 (11751479_a_at) / Fold change /veh CCDC152 (11751479_a_at) / RFU FAM211A (11726209_a_at) / Fold change /veh FAM211A (11726209_a_at) / RFU RGS16 (11746705_a_at) / Fold change /veh RGS16 (11746705_a_at) / RFU VCAN (11755009_s_at) / Fold change /veh VCAN (11755009_s_at) / RFU RHOB (11743442_s_at) / Fold change /veh RHOB (11743442_s_at) / RFU RGS16 (11720943_a_at) / Fold change /veh RGS16 (11720943_a_at) / RFU RGS16 (11720944_at) / Fold change /veh RGS16 (11720944_at) / RFU, VPS4B / Fold change vs veh, VPS4B / RFU, CREB1 / Fold change vs veh, CREB1 / RFU, DNAJC13 / Fold change vs veh, DNAJC13 / RFU, GNAQ / Fold change vs veh, GNAQ / RFU, CDK5R1 / Fold change vs veh, CDK5R1 / RFU, ZRANB3 / Fold change vs veh, ZRANB3 / RFU, CUL4A / Fold change vs veh, CUL4A / RFU, CCNY / Fold change vs veh, CCNY / RFU, UFL1 / Fold change vs veh, UFL1 / RFU, COG3 / Fold change vs veh, COG3 / RFU, DIAPH2 / Fold change vs veh, DIAPH2 / RFU, SKA2 / Fold change vs veh, SKA2 / RFU, AFF3 / Fold change vs veh, AFF3 / RFU, LMF1 / Fold change vs veh, LMF1 / RFU, IPO11 / Fold change vs veh, IPO11 / RFU, DFFB / Fold change vs veh, DFFB / RFU, FOXP1 / Fold change vs veh, FOXP1 / RFU, CARD8 / Fold change vs veh, CARD8 / RFU, STRN3 / Fold change vs veh, STRN3 / RFU, ADK / Fold change vs veh, ADK / RFU, RASSF2 / Fold change vs veh, RASSF2 / RFU, WIPF1 / Fold change vs veh, WIPF1 / RFU, LARP1B / Fold change vs veh, LARP1B / RFU, RASA1 / Fold change vs veh, RASA1 / RFU, RB1 / Fold change vs veh, RB1 / RFU, PPFIA1 / Fold change vs veh, PPFIA1 / RFU, MAT2A / Fold change vs veh, MAT2A / RFU, CCT5 / Fold change vs veh, CCT5 / RFU, WDR92 / Fold change vs veh, WDR92 / RFU, CUX1 / Fold change vs veh, CUX1 / RFU, TTC7A / Fold change vs veh, TTC7A / RFU, TMEM135 / Fold change vs veh, TMEM135 / RFU, DEPTOR / Fold change vs veh, DEPTOR / RFU, CPM / Fold change vs veh, CPM / RFU, DNAJB6 / Fold change vs veh, DNAJB6 / RFU, CACNA2D3 / Fold change vs veh, CACNA2D3 / RFU, DTX4 / Fold change vs veh, DTX4 / RFU, TFCP2 / Fold change vs veh, TFCP2 / RFU, GMCL1 /// GMCL1P1 / Fold change vs veh, GMCL1 /// GMCL1P1 / RFU, AEBP2 / Fold change vs veh, AEBP2 / RFU, SNHG1 /// SNORD22 /// SNORD25 /// SNORD26 /// SNORD27 /// SNORD28 /// SNORD29 /// SNORD31 / Fold change vs veh, SNHG1 /// SNORD22 /// SNORD25 /// SNORD26 /// SNORD27 /// SNORD28 /// SNORD29 /// SNORD31 / Fold change (Aza/veh), C12orf56 (ProbeSet 11735607_a_at) / Fold change (ACY-1035/veh), C12orf56 (ProbeSet 11735607_a_at) / Fold change (Aza/veh), FGFR1OP (ProbeSet 11751329_s_at) / Fold change (ACY-1035/veh), FGFR1OP (ProbeSet 11751329_s_at) / Fold change (Aza/veh), VPS36 (ProbeSet 11739960_a_at) / Fold change (ACY-1035/veh), VPS36 (ProbeSet 11739960_a_at) / RFU SYPL1 (11715823_x_at) / Fold change /veh SYPL1 (11715823_x_at) / RFU IGFBP7 (11715501_s_at) / Fold change /veh IGFBP7 (11715501_s_at) / RFU REEP3 (11722064_at) / Fold change /veh REEP3 (11722064_at) / RFU IGLL1 (11728026_x_at) / Fold change /veh IGLL1 (11728026_x_at): dose or concentration left out as unconfirmed
Settings: ProbeSet 11739106_a_at; LIST B

Nc1ccc(-c2cccs2)cc1NC(=O)c1ccc2c(c1)cc(C1CC1)n2CCN1CCOCC1 [ACY-1035]
RFU, TMEM33: 263.53 RFU
